This experiment relates to PCP-treated rats. The experiment in a line: Novel object recognition test, sub-chronic PCP model of schizophrenia. Type of experiment: in vivo, rat. On the procedure: Female hooded-Lister rats were used for this experiment. Rats were housed in groups of 5 under standard laboratory conditions under a 12 hr light: dark cycle, lights on at 0700 hr. Testing was carried out in the light phase.
Rats were randomly assigned to two treatment groups and treated with vehicle, n=20 (distilled water, i.p.) or Phencyclidine hydrochloride (PCP), n=100 (2 mg/kg, i.p. twice daily for 7-days). PCP was dissolved in distilled water. This was followed by a 7-day wash out period before the rats were tested following acute treatment with CBDV, risperidone or vehicle.
Risperidone (0.1 mg/kg) was dissolved in a minimum volume of acetic acid, made up to volume with distilled water and pH adjusted to 6 with 0.1M NaOH and administered via the i.p. route in a volume of 1 ml/kg, 60 min prior to testing.
CBDV at 2, 10 or 20 mg/kg was dissolved in 2:1:17 (Ethanol:Cremofor:Saline 0.9%) and administered via the i.p. route in a volume of 5 ml/kg, 60 min prior to testing.
Rats were allowed to habituate to the empty test box and the behavioural test room environment for 1h on day 1. Prior to behavioural testing on day 2 rats are given a further 3 min habituation.
Following the 3 min habituation period, the rats are given two 3 min trials (T1 and T2) which are separated by a 1 min inter-trial interval in the home cage during which the objects are changed. Behaviour in all trials was recorded on video for subsequent blind scoring.
In this trial, the animals are allowed to explore two identical objects (A1 and A2) for 3 min.
In this trial, the animals explore a familiar object (A) from T1 and a novel object (B) for 3 min. The familiar object presented during T2 is a duplicate of the object presented in T1 in order to avoid any olfactory trails.
The object exploration is defined by animals licking, sniffing or touching the object with the forepaws whilst sniffing, but not leaning against, turning around, standing or sitting on the object. The exploration time (s) of each object (A, B, familiar and novel) in each trial are recorded using two stopwatches and the following factors are calculated:
Discrimination index (DI), which is calculated as shown below: […]

Each structure is given as a SMILES string.

On to `C=C(C)[C@@H]1CCC(C)=C[C@H]1c1c(O)cc(CCC)cc1O` [CBDV, Cannabidivarin], for which, where the note is “10 and 20 mg/kg, PCP rats”, the “discrimination index (DI) (FIG. 17)” value is recorded as “statistically significant increase in the DI”. For the same compound, the “time spent investigating two identical objects in Trial 1 (FIG. 16A)” value (CBDV 2, 10 or 20 mg/kg i.p. 60 min prior to testing) is listed as “no real preference”. Where the note is “CBDV 10 and 20 mg/kg i.p., PCP treated rats”, the “discrimination between familiar and novel objects, Trial 2 (FIG. 16B)” value was “reverse the cognitive dysfunction”.

The values above are taken from patent US11752111B2, “Use of cannabidivarin in the treatment of autism spectrum disorder, associated disorders and schizophrenia” (GW Research Limited, priority 2016, dated 2023).
